Where a name gives a salt, the structure may show the parent alone.
Columns and labels:
[1] = molecular target: T1, calcium channel (Cavia porcellus, UniProt A0A286X7I0); experiment: Bond to the calcium channel: displacement of the specific (S)-^3H-devapamil bond in membrane preparations of guinea pig skeletal muscle; format: binding; conditions: guinea pig skeletal muscle membranes; 1 nM (S)-^3H-devapamil; 60 minutes, room temperature; 10^-10 to 10^-6 M test substance
T1 construct: membrane preparations of guinea pig skeletal muscle; from tissue; host or cells: guinea pig skeletal muscle, membrane preparation
T1 sequence (A0A286X7I0 1-1867): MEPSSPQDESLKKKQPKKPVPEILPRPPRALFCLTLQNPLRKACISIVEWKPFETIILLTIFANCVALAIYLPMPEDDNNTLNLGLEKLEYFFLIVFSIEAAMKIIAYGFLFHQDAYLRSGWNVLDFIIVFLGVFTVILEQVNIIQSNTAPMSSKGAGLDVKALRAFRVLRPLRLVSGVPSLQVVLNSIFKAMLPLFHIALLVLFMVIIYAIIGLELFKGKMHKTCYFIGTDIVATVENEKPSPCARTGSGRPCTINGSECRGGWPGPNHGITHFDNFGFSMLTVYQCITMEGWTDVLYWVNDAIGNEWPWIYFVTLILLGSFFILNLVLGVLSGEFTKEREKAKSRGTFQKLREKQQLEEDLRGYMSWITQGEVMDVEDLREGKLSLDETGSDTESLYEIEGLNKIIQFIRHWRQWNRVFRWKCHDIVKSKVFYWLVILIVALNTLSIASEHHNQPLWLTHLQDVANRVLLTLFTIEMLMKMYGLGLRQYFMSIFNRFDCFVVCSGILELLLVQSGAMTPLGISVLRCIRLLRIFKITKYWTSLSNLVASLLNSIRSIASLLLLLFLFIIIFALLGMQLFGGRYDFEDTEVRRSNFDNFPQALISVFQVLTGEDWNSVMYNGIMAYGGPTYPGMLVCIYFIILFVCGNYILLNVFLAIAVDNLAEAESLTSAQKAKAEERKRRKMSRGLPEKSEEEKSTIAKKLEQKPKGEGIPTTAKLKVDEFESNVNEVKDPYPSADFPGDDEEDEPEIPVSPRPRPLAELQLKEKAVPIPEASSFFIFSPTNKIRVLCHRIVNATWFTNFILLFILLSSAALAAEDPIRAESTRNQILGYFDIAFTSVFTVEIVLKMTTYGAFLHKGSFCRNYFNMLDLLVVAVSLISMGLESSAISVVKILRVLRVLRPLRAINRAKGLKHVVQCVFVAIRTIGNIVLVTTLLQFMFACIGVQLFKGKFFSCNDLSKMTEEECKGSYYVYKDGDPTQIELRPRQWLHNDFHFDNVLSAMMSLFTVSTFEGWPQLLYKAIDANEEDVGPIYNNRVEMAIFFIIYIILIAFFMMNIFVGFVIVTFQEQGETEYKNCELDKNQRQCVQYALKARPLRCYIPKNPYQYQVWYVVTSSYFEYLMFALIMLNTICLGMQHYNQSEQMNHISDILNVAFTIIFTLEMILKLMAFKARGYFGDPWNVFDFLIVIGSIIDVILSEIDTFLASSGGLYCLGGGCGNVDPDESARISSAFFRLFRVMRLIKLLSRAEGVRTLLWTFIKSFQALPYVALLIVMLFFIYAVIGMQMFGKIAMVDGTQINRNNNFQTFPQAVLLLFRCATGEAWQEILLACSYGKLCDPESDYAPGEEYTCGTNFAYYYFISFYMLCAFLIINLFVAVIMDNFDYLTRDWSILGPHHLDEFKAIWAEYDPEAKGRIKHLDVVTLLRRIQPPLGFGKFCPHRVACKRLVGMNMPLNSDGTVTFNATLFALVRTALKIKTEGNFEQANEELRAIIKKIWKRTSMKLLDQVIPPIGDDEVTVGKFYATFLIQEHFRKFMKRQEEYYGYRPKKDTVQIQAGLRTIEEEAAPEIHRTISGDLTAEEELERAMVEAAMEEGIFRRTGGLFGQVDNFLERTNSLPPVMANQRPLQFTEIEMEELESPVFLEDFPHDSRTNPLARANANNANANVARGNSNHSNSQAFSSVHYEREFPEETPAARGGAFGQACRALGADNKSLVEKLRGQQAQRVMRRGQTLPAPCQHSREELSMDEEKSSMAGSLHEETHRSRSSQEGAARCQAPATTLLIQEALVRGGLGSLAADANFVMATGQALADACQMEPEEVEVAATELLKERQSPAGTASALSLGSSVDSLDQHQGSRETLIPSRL
Method: (a) Bond to the calcium channel Displacement of the specific (S)-^3 H-devapamil bond in membrane preparations of guinea pig skeletal muscle
(§1) Membrane homogenate was incubated for 60 minutes at room temperature with increasing concentrations (from 10^-10 to 10^-6 M) of test substance and a fixed concentration of 1 nM of radioligand ((S)-^3 H-devapamil or ^3 H-ketanserine). The bound and the free radioligand were separated by filtration over a glass fiber filter, and the amount of radioligand retained on the filter was determined by liquid scintillation measurement. 2 tests with 3 batches were carried out.
(§2) The competition constants (Ki values in nM) were calculated by nonlinear regression analysis on an IBM computer using the program Ligand from Munson and Rodbard (Analytical Biochemistry 107 (1980), 220).

[2] = molecular target: T2, serotonin-S2-receptor (Rattus norvegicus, UniProt P14842); experiment: Bond to the serotonin-S2-receptor: displacement of the specific ^3H-ketanserine bond in membrane preparations of cerebral cortex of the rat; format: binding; conditions: rat cerebral cortex membranes; 1 nM ^3H-ketanserine; 60 minutes, room temperature; 10^-10 to 10^-6 M test substance
T2 construct: membrane preparations of cerebral cortex of the rat; from tissue; host or cells: rat cerebral cortex, membrane preparation
T2 sequence (P14842 whole entry): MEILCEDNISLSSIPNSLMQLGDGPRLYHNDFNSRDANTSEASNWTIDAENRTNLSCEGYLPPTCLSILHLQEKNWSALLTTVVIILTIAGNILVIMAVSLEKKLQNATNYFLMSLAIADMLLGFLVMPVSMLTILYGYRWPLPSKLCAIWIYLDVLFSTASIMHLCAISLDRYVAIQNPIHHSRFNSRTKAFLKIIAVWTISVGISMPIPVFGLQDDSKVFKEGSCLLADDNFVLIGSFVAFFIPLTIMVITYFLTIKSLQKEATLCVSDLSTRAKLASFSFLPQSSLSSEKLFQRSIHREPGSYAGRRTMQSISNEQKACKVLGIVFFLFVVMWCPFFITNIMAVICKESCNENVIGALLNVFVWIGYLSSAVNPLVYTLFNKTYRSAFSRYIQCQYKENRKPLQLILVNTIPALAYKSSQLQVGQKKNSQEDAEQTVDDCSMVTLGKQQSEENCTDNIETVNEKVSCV
Method: (b) Bond to the serotonin-S2 -receptor
Displacement of the specific ^3 H-ketanserine bond in membrane preparations of cerebral cortex of the rat
as §1, §2

Row | SMILES | Ki [1] [nM] | Ki [2] [nM]
1 | CCCCCCCCN(C)CCCC(C#N)(c1cc(OC)c(OC)c(OC)c1)C(C)C (stereo not drawn) [Example 4, 5-[N-methyl-N-(n-octyl)]-amino-2-(3,4,5-trimethoxyphenyl)-2-isopropylvaleronitrile] | 5.2 | 26.4
2 | COc1cccc(C(C#N)(CCCN(C)CCC2CCCCC2)C(C)C)c1 (stereo not drawn) [Example 1, 5-[N-methyl-N-(2-cyclohexyl)-ethyl]-amino-2-(3-methoxyphenyl)-2-isopropylvaleronitrile] | 16.2 | 5
3 | CCCCCCN(C)CCC[C@@](C#N)(c1cc(OC)c(OC)c(OC)c1)C(C)C [Example 24, (S)-5-[N-methyl-N-(n-hexyl)]-amino-2-(3,4,5-trimethoxyphenyl)-2-isopropylvaleronitrile hydrochloride] | 8.6 | 21.1
4 | COc1cc(OC)cc(C(C#N)(CCCN(C)CCC2CCCCC2)C(C)C)c1 (stereo not drawn) [Example 10, 5-[N-methyl-N-(2-cyclohexyl)-ethyl]-amino-2-(3,5-dimethoxyphenyl)-2-isopropylvaleronitrile] | 9.2 | 2.8
5 | CCCCCCN(C)CCCC(C#N)(c1cc(OC)c(OC)c(OC)c1)C(C)C (stereo not drawn) [Example 23, 5-[N-methyl-N-(n-hexyl)]-amino-2-(3,4,5-trimethoxyphenyl)-2-isopropylvaleronitrile hydrochloride] | 11.6 | 48.4
6 | COc1cc([C@](C#N)(CCCN(C)CCC2CCCCC2)C(C)C)cc(OC)c1OC [Example 13, (S)-5-[N-methyl-N-(2-cyclohexyl)-ethyl]-amino-2-(3,4,5-trimethoxyphenyl)-2-isopropylvaleronitrile hydrochloride] | 3.4 | 3.3
7 | CCCCCCCCN(C)CCC[C@@](C#N)(c1cc(OC)c(OC)c(OC)c1)C(C)C [Example 6, (S)-5-[N-methyl-N-(n-octyl)]-amino-2-(3,4,5-trimethoxyphenyl)-2-isopropylvaleronitrile] | 2.9 | 11.2
8 | CCCCC=CCCN(C)CCCC(C#N)(c1cc(OC)c(OC)c(OC)c1)C(C)C (stereo not drawn) [Example 15, 5-[N-methyl-N-(n-octen-3-yl)]-amino-2-(3,4,5-trimethoxyphenyl)-2-isopropylvaleronitrile hydrochloride] | 7.5 | 6.8
9 | COc1ccc(CCN(C)CCCC(C#N)(c2ccc(OC)c(OC)c2)C(C)C)cc1OC (stereo not drawn) [Verapamil, verapamil, reference compound] |  | 177
10 | COc1cc(C(C#N)(CCCN(C)CCC2CCCCC2)C(C)C)cc(OC)c1OC (stereo not drawn) [Example 11, 5-[N-methyl-N-(2-cyclohexyl)-ethyl]-amino-2-(3,4,5-trimethoxyphenyl)-2-isopropylvaleronitrile] | 5.8 | 10.7
11 | CC(C)C(C#N)(CCCN(C)CCC1=CCCCC1)c1ccccc1 (stereo not drawn) [Example 18, 5-(N-methyl-N-[2-(cyclohexen-1-yl)ethyl]}-amino-2-phenyl-2-isopropylvaleronitrile] | 36.7 | 4
12 | CCCCCCCCCCN(C)CCCC(C#N)(c1cc(OC)c(OC)c(OC)c1)C(C)C (stereo not drawn) [Example 2, 5-[N-methyl-N-(n-decyl)]-amino-2-(3,4,5-trimethoxyphenyl)-2-isopropylvaleronitrile] | 19.1 | 21
13 | CCOc1cc(OCC)cc(C(C#N)(CCCN(C)CCC2CCCCC2)C(C)C)c1 (stereo not drawn) [Example 5, 5-[N-methyl-N-(2-cyclohexyl)-ethyl]-amino-2-(3,5-diethoxyphenyl)-2-isopropylvaleronitrile] | 11.9 | 20
14 | COc1ccc(C(C#N)(CCCN(C)CCC2CCCCC2)C(C)C)c([N+](=O)[O-])c1OC (stereo not drawn) [Example 16, 5-[N-methyl-N-(2-cyclohexyl)ethyl]-amino-2-(2-nitro-3,4-dimethoxyphenyl)-2-isopropylvaleronitrile] | 34.2 | 3.6

— US4940780A, “Basically substituted phenylacetonitriles, their preparation and drugs containing these compounds” (BASF Aktiengesellschaft, priority 1986, dated 1990)
